{
  "source": "patent US20140235545A1",
  "about": "“The use of HCV immunogenic peptide or a derivative thereof in the prevention or treatment of arthritis” (priority 2011, published 2014)",
  "tested_on": "combined collagen-adjuvant induced arthritis (calf type II collagen in combination with Freund's complete adjuvant)",
  "assay": "Protective effect of peptide A on combined collagen-adjuvant induced arthritis in rats",
  "assay_type": "in vivo, SD rats",
  "conditions": "for ankle joint swelling value: X±SD; for ankle joint swelling value / Lesion scoring ( X ± SD), joint lesion severity: n=10; for inhibition rate of ankle joint swelling: vs model group; for Lesion scoring ( X ± SD), joint lesion severity / state of joint synovial tissue (HE sections): 32nd day; for Lesion scoring ( X ± SD), joint lesion severity: left rear ankle joint histopathology, lower score = milder",
  "source_text": "SPF-level SD rats, each weighting 180 g˜220 g, with male and female each in half, provided by Experimental Animal Center of Chinese Academy of Military Medical.\nPeptide with the following sequence is used: GQTYTSG (hereinafter referred to as peptide A), which is synthesized by solid phase peptide synthesis method using 413A automatic peptide synthesizer (available from Perkin Elmer Corporation), the detailed synthetic steps is described in Example 1 of PCT/CN2006/001176. The peptide was to be dissolved in physiological saline when used.\nSD rats, with male and female each in half, were randomly divided into five groups with 10 rats in each group, respectively are model group (employing physiological saline, calf type II collagen and Freund's complete adjuvant); control group (employing the same volume of physiological saline as the model group); peptide A high, medium and low dose groups (employing calf type II collagen, Freund's complete adjuvant and peptide A, wherein each group is given different doses of peptide A, respectively are 174 μg/kg·d, 87 μg/kg·d and 43.5 μg/kg·d, peptide A is dissolved in physiological saline to form peptide A solution with desired concentration). Peptide A solution in each dose was administered by subcutaneous injection, 0.1 ml of peptide A solution per 100 g body weight of rats. The control group employed the same amount of physiological saline as that of the peptide A solution (0.1 ml of physiological saline per 100 g body weight of rats).\n10 mg of calf type II collagen was dissolved into 5 ml 0.1 mol/L of acetic acid solution, and then the resulting solution was placed in a refrigerator at 4° C. overnight, the next day, the solution was mixed with Freund's complete adjuvant in a volume ratio of 1:1, the resulting mixture is sucked and discharged repeatedly by a syringe, until the mixture was emulsified into an emulsion completely. Each group rats were administered according to the following manner. These rats were normally fed every day during the administration.\nOn the 1st day, except the control group, for rats of other groups (the model group and the peptide A high, medium and low dose groups), 0.5 ml of the emulsion (prepared by calf type II collagen and Freund's complete adjuvant as above) was subcutaneously injected into the base of the tail of every rat, and the injection site is pressed slightly for 30 s so that the emulsion was completely absorbed. On the 8th day, emulsion injection is conducted again in the same way, 0.5 ml for every rat.\nFrom the 2nd day (including this day), the rats of peptide A high, medium and low dose groups each were administered with corresponding dose of peptide A. Then, they were subcutaneously injected with corresponding dose of peptide A for one time every other day, a total of 15 times; at the same time, the rats of the control group and the model group were subcutaneously injected the same amount of physiological saline as that of peptide A for the high, medium and low dose groups every other day, a total of 15 times.\nMeasurement for the experimental results was conducted as follows. Firstly, before administration to rats of each group, left rear ankle circumference of each rat was measured by a flexible rule as a base value, and then circumference of left rear ankle with inflammation of each rat was measured at the 4th, 8th, 12th, 16th, 20th, 24th, 28th, and 32nd day, respectively. Swelling value obtained by circumference after inflammation minus circumference before inflammation was used to observe changes of primary and secondary inflammation of combined collagen-adjuvant induced rats.\nSecondly, at the 32nd day, rats of each group were killed, and their left rear foot ankle joints ware quickly taken out, fixed in 10% formalin and then embedded in paraffin after decalcification, sectioned and stained with HE. […]",
  "key": {"[1]": {"conditions": "high dose 174 μg/kg·d s.c., the 4th day"}, "[2]": {"conditions": "high dose 174 μg/kg·d s.c., the 8th day"}, "[3]": {"conditions": "high dose 174 μg/kg·d s.c., the 12th day"}, "[4]": {"conditions": "high dose 174 μg/kg·d s.c., the 16th day"}, "[5]": {"conditions": "high dose 174 μg/kg·d s.c., the 20th day"}, "[6]": {"conditions": "high dose 174 μg/kg·d s.c., the 24th day"}, "[7]": {"conditions": "high dose 174 μg/kg·d s.c., the 28th day"}, "[8]": {"conditions": "high dose 174 μg/kg·d s.c., the 32nd day"}, "[9]": {"conditions": "low dose 43.5 μg/kg·d s.c., the 4th day"}, "[10]": {"conditions": "low dose 43.5 μg/kg·d s.c., the 8th day"}, "[11]": {"conditions": "low dose 43.5 μg/kg·d s.c., the 12th day"}, "[12]": {"conditions": "low dose 43.5 μg/kg·d s.c., the 16th day"}, "[13]": {"conditions": "low dose 43.5 μg/kg·d s.c., the 20th day"}, "[14]": {"conditions": "low dose 43.5 μg/kg·d s.c., the 24th day"}, "[15]": {"conditions": "low dose 43.5 μg/kg·d s.c., the 28th day"}, "[16]": {"conditions": "low dose 43.5 μg/kg·d s.c., the 32nd day"}, "[17]": {"conditions": "medium dose 87 μg/kg·d s.c., the 4th day"}, "[18]": {"conditions": "medium dose 87 μg/kg·d s.c., the 8th day"}, "[19]": {"conditions": "medium dose 87 μg/kg·d s.c., the 12th day"}, "[20]": {"conditions": "medium dose 87 μg/kg·d s.c., the 16th day"}, "[21]": {"conditions": "medium dose 87 μg/kg·d s.c., the 20th day"}, "[22]": {"conditions": "medium dose 87 μg/kg·d s.c., the 24th day"}, "[23]": {"conditions": "medium dose 87 μg/kg·d s.c., the 28th day"}, "[24]": {"conditions": "medium dose 87 μg/kg·d s.c., the 32nd day"}},
  "note": "Entries after “also recorded” stand apart in the source; their conditions may differ. No end group written: not given here.",
  "data": [
    {"substance": "GQTYTSG [Peptide A]", "values": [
      {"measurement": "arthritis lesion (histopathology) after administration", "setting": "all dose groups, effect in descending order high, medium, low", "value": "reduced in different degrees"},
      {"measurement": "ankle joint swelling value", "setting": "[1]", "value": "7.3 ± 1.8", "unit": "mm"},
      {"measurement": "inhibition rate of ankle joint swelling", "setting": "[1]", "value": "(20.6%)"},
      {"measurement": "ankle joint swelling value", "setting": "[2]", "value": "8.2 ± 1.5", "unit": "mm"},
      {"measurement": "inhibition rate of ankle joint swelling", "setting": "[2]", "value": "(34.4%)"},
      {"measurement": "ankle joint swelling value", "setting": "[3]", "value": "9.5 ± 2.1", "unit": "mm"},
      {"measurement": "inhibition rate of ankle joint swelling", "setting": "[3]", "value": "(30.1%)"},
      {"measurement": "ankle joint swelling value", "setting": "[4]", "value": "9.8 ± 1.7", "unit": "mm"},
      {"measurement": "inhibition rate of ankle joint swelling", "setting": "[4]", "value": "(35.5%)"},
      {"measurement": "ankle joint swelling value", "setting": "[5]", "value": "10.2 ± 1.9", "unit": "mm"},
      {"measurement": "inhibition rate of ankle joint swelling", "setting": "[5]", "value": "(41.4%)"},
      {"measurement": "ankle joint swelling value", "setting": "[6]", "value": "10.5 ± 1.9", "unit": "mm"},
      {"measurement": "inhibition rate of ankle joint swelling", "setting": "[6]", "value": "(44.1%)"},
      {"measurement": "ankle joint swelling value", "setting": "[7]", "value": "11.4 ± 1.6", "unit": "mm"},
      {"measurement": "inhibition rate of ankle joint swelling", "setting": "[7]", "value": "(38.7%)"},
      {"measurement": "ankle joint swelling value", "setting": "[8]", "value": "12.0 ± 1.6", "unit": "mm"},
      {"measurement": "inhibition rate of ankle joint swelling", "setting": "[8]", "value": "(30.6%)"},
      {"measurement": "Lesion scoring ( X ± SD), joint lesion severity", "setting": "high dose group (174 μg/kg·d s.c.)", "value": "3.73 ± 1.57"},
      {"measurement": "inhibition rate to the joint swelling", "setting": "high dose group (174 μg/kg·d)", "value": "~45", "unit": "%"},
      {"measurement": "state of joint synovial tissue (HE sections)", "setting": "high dose group, FIGS. 5a and 5b", "value": "mild congestion of local synovial tissue of the rats, having no significant surface proliferation"},
      {"measurement": "joint swelling compared with rats of the model group", "setting": "high, medium and low dose groups, observation", "value": "significantly reduced joint swelling"},
      {"measurement": "skin ulcer symptom", "setting": "high, medium and low dose groups, part of model rats had skin ulcers on the 24th day", "value": "did not have skin ulcer symptom"},
      {"measurement": "ankle joint swelling value", "setting": "[9]", "value": "8.8 ± 1.6", "unit": "mm"},
      {"measurement": "inhibition rate of ankle joint swelling", "setting": "[9]", "value": "(4.3%)"},
      {"measurement": "ankle joint swelling value", "setting": "[10]", "value": "10.2 ± 1.7", "unit": "mm"},
      {"measurement": "inhibition rate of ankle joint swelling", "setting": "[10]", "value": "(18.4%)"},
      {"measurement": "ankle joint swelling value", "setting": "[11]", "value": "11.2 ± 1.8", "unit": "mm"},
      {"measurement": "inhibition rate of ankle joint swelling", "setting": "[11]", "value": "(17.6%)"},
      {"measurement": "ankle joint swelling value", "setting": "[12]", "value": "12.3 ± 1.8", "unit": "mm"},
      {"measurement": "inhibition rate of ankle joint swelling", "setting": "[12]", "value": "(19.1%)"},
      {"measurement": "ankle joint swelling value", "setting": "[13]", "value": "13.4 ± 1.7", "unit": "mm"},
      {"measurement": "inhibition rate of ankle joint swelling", "setting": "[13]", "value": "(23.0%)"},
      {"measurement": "ankle joint swelling value", "setting": "[14]", "value": "14.6 ± 1.8", "unit": "mm"},
      {"measurement": "inhibition rate of ankle joint swelling", "setting": "[14]", "value": "(22.3%)"},
      {"measurement": "ankle joint swelling value", "setting": "[15]", "value": "14.8 ± 2.2", "unit": "mm"},
      {"measurement": "inhibition rate of ankle joint swelling", "setting": "[15]", "value": "(20.4%)"},
      {"measurement": "ankle joint swelling value", "setting": "[16]", "value": "14.5 ± 1.8", "unit": "mm"},
      {"measurement": "inhibition rate of ankle joint swelling", "setting": "[16]", "value": "(16.2%)"},
      {"measurement": "Lesion scoring ( X ± SD), joint lesion severity", "setting": "low dose group (43.5 μg/kg·d s.c.)", "value": "4.36 ± 1.15"},
      {"measurement": "state of joint synovial tissue (HE sections)", "setting": "low dose group, FIGS. 3a and 3b", "value": "mild congestion and significant proliferation and surface projection of the synovial tissue, as well as mild degeneration of covering synovial cells"},
      {"measurement": "ankle joint swelling value", "setting": "[17]", "value": "8.2 ± 1.5", "unit": "mm"},
      {"measurement": "inhibition rate of ankle joint swelling", "setting": "[17]", "value": "(10.9%)"},
      {"measurement": "ankle joint swelling value", "setting": "[18]", "value": "9.3 ± 2.2", "unit": "mm"},
      {"measurement": "inhibition rate of ankle joint swelling", "setting": "[18]", "value": "(25.6%)"},
      {"measurement": "ankle joint swelling value", "setting": "[19]", "value": "9.9 ± 1.8", "unit": "mm"},
      {"measurement": "inhibition rate of ankle joint swelling", "setting": "[19]", "value": "(27.2%)"},
      {"measurement": "ankle joint swelling value", "setting": "[20]", "value": "11.4 ± 1.6", "unit": "mm"},
      {"measurement": "inhibition rate of ankle joint swelling", "setting": "[20]", "value": "(25.0%)"},
      {"measurement": "ankle joint swelling value", "setting": "[21]", "value": "12.2 ± 1.7", "unit": "mm"},
      {"measurement": "inhibition rate of ankle joint swelling", "setting": "[21]", "value": "(29.9%)"},
      {"measurement": "ankle joint swelling value", "setting": "[22]", "value": "12.6 ± 2.1", "unit": "mm"},
      {"measurement": "inhibition rate of ankle joint swelling", "setting": "[22]", "value": "(33.0%)"},
      {"measurement": "ankle joint swelling value", "setting": "[23]", "value": "13.7 ± 1.8", "unit": "mm"},
      {"measurement": "inhibition rate of ankle joint swelling", "setting": "[23]", "value": "(26.3%)"},
      {"measurement": "ankle joint swelling value", "setting": "[24]", "value": "13.9 ± 1.7", "unit": "mm"},
      {"measurement": "inhibition rate of ankle joint swelling", "setting": "[24]", "value": "(19.6%)"},
      {"measurement": "Lesion scoring ( X ± SD), joint lesion severity", "setting": "medium dose group (87 μg/kg·d s.c.)", "value": "4.12 ± 1.28"},
      {"measurement": "state of joint synovial tissue (HE sections)", "setting": "medium dose group, FIGS. 4a and 4b", "value": "mild congestion of local synovial tissue and infiltration of few inflammatory cells; also recorded: mild congestion, uneven surface and mild proliferation of the synovial tissue"}
    ]}
  ]
}
